Test results as given in publication PMC10708353, “Malvidin and Its Mono- and Di-Glucosides Forms: A Study of Combining Both In Vitro and Molecular Docking Studies Focused on Cholinesterase, Butyrylcholinesterase, COX-1 and COX-2 Activities” (Molecules, 2023).
Like-named read-outs stand apart in the source and are kept apart here. Marks after values point to notes of the source that are not given here.

What was measured:
[1] = target: T1, COX-2 (human recombinant) (Homo sapiens, UniProt P35354); assay: COX colorimetric inhibitor screening assay, COX-2; format: biochemical; conditions: for Selectivity Index COX-2/COX-1: ratio of IC50 COX-2 to IC50 COX-1
T1 construct: purchased Cayman Chemical, Ann Arbor, MI, USA 701050
T1 sequence (P35354 18-604): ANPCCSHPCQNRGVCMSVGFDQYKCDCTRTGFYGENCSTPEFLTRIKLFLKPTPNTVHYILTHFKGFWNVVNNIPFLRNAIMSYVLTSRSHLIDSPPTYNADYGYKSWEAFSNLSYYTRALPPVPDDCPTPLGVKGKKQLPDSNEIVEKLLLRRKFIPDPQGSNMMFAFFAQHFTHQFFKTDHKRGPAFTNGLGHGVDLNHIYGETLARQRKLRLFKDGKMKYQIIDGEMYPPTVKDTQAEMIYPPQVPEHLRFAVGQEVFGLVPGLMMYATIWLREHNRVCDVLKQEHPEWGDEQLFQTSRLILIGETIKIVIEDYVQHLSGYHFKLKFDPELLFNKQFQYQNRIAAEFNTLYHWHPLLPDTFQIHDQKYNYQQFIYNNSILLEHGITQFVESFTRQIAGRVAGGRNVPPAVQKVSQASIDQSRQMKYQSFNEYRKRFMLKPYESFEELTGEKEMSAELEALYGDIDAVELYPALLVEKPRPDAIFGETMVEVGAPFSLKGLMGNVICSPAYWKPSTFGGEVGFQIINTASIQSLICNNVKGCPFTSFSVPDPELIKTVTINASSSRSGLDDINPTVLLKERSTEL
Description: (§1) Firstly, the plate was carefully shaken for a few seconds and incubated for 5 min at 25 °C. Secondly, 20 μL of colorimetric substrate solution was added to each plate’s well. It was the addition of 20 μL of arachidonic acid (final concentration in reaction mixture 100 µM) which initiated the reaction. Thirdly, the plate was shaken again for a few seconds and incubated for two min at 25 °C. […] The percentage of COX inhibition was calculated using the Equation (1): […]
(§2) The IC50 parameter was calculated referring to plots showing the relation between percentage of COX inhibition and concentration of the compounds.

[2] = target: T2, Butyrylcholinesterase from equine serum (BChE) (Equus caballus, UniProt P81908); assay: Butyrylcholinesterase inhibition assay (Ellman method, modified); format: biochemical
T2 construct: Butyrylcholinesterase from equine serum (BChE); purchased Merck kGaA, Darmstadt, Germany; host or cells: equine serum
T2 sequence (P81908 whole entry): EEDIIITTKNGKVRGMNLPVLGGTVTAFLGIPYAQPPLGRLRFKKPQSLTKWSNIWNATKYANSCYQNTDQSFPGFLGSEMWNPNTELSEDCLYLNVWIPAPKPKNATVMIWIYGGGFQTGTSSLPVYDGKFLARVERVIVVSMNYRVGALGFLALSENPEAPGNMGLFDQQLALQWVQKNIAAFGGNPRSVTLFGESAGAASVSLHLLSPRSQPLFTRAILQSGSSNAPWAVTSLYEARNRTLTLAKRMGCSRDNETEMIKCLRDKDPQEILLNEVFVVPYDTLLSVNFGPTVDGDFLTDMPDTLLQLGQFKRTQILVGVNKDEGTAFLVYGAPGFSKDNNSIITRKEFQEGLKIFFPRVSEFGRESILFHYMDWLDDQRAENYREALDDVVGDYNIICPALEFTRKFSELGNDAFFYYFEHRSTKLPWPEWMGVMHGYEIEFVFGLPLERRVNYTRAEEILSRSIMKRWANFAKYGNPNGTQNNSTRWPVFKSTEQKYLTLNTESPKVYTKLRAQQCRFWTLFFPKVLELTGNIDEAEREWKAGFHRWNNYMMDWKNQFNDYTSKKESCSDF
Description: (§3) 5,5′-Dithiobis(2-nitrobenzoic acid), (DTNB), acetylthiocholine iodide, butyryl-thiocholine iodide, acetylcholinesterase from Electrophorus electricus, type VI-S (aChE), Butyrylcholinesterase from equine serum (BChE), neostigmine bromide, and sodium dodecyl sulfate (SDS) were purchased from Merck kGaA, Darmstadt, Germany.
(§4) Referring to both the Ellman and Jin et al. methods, we identified acetylcholinesterase/butyrylcholinesterase activity, implementing minor modifications. In brief, the assay was carried out on a 96-well plate, with each well containing 140 µL 0.1 M phosphate buffer (pH 8.0), 10 µL of stock solution of Mv, or Mv 3-glc or Mv 3,5-diglc, 10 µL AChE/BChE (1 units/mL). The plate was incubated for 10 min at 25 °C. Subsequently, 10 μL of a 10 mM DTNB was added to the reaction mixture. In the following step, the reaction was initiated by adding 10 μL of a 14 mM acetylthiocholine iodide/butyryl-thiocholine iodide. The plate was shaken for one minute and finally 20 µL of 5% SDS was added in order to stop the reaction. Control wells, which contained the same composition except for the studied compounds (10 µL, 70% ethanol), were included. […] All of the reactions were performed in five repetitions. The percent of AChE/BChE inhibition was calculated using the following formula:(1) %Inhibition=Ac−As/Ac·100% where: As refers to the absorbance of the sample containing Mvs and Ac refers to the absorbance of the control sample. The studies of AChE and BChE inhibition were also performed depending on the concentration of the drug, neostigmine, as a positive control.

[3] = physiological pH, species established in previous publication, cited from earlier work
[4] = target: T3, acetylcholinesterase from Electrophorus electricus, type VI-S (AChE) (Electrophorus electricus, UniProt O42275); assay: Acetylcholinesterase inhibition assay (Ellman method, modified); format: biochemical
T3 construct: purchased Merck kGaA, Darmstadt, Germany
T3 sequence (O42275 24-633): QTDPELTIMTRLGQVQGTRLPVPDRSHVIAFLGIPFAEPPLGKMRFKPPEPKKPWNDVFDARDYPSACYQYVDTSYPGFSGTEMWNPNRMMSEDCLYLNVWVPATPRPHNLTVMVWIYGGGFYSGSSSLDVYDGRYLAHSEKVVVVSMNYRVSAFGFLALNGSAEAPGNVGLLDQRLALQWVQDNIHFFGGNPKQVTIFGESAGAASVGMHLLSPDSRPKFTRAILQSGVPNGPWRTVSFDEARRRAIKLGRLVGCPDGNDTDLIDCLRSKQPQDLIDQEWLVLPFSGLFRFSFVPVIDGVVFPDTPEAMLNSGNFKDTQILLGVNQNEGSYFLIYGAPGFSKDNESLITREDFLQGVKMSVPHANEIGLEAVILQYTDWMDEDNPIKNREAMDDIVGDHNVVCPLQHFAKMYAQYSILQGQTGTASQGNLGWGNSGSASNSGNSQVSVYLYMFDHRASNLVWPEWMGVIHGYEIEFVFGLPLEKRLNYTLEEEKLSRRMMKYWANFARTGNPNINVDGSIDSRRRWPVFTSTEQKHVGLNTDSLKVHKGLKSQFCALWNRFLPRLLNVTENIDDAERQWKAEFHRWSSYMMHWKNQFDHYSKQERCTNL
Description: as §3, §4

COX-1 (ovine) = target: T4, COX-1 (ovine) (Ovis aries, UniProt P05979); assay: COX colorimetric inhibitor screening assay, COX-1; format: biochemical
T4 construct: purchased Cayman Chemical, Ann Arbor, MI, USA 701050
T4 sequence (P05979 25-600): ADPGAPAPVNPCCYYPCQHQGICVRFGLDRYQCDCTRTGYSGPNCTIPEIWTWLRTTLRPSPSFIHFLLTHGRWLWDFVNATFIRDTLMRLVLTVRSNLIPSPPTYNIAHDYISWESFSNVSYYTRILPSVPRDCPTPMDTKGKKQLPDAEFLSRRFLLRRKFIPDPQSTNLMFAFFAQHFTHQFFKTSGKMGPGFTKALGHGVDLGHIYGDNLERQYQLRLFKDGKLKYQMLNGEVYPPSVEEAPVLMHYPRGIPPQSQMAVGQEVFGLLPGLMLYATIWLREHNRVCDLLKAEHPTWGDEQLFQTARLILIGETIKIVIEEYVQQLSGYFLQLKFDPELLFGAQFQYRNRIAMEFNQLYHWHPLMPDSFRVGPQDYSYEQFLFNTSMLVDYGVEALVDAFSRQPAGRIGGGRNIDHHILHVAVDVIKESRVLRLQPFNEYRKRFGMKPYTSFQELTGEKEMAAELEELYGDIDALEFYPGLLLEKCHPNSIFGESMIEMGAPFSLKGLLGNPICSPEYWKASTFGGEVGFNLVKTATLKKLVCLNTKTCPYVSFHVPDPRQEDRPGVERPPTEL
Description: as §1, §2

[5] = compound concentration 100 µM, read-out: Inhibition of BChE (%)
[6] = compound concentration 100 µM, read-out: Inhibition of AChE (%)
[7] = compound concentration 100 µM, 100 µM

| SMILES | IC50 [1] [µM] | Selectivity Index COX-2/COX-1 [1] | inhibition at 100 µM [2, 5] [%] | fM (population of the species) [3] [%] | fM (population of the species) ([3]; listed as Mv 3,5-diglc^–) [%] | inhibition at 100 µM [4, 6] [%] | IC50 (COX-1 (ovine)) [µM] | Inhibition of BChE (%) [2, 7] | inhibition at 100 µM ([2]; read-out: Inhibition of BChE (%), compound concentration 100 µM) [%] | fM (population of the species) ([3]; listed as Mv 3-glc^2−) [%] | fM (population of the species) ([3]; listed as Mv 3-glc^−) [%] | Inhibition of AChE (%) [4, 7] | inhibition at 100 µM ([4]; read-out: Inhibition of AChE (%), compound concentration 100 µM) [%] | fM (population of the species) ([3]; listed as Mv^2−) [%] | fM (population of the species) ([3]; listed as Mv^3−) [%] | fM (population of the species) ([3]; listed as Mv^−) [%] | inhibition at 20.28 µM ([2]; neostigmine concentration 20.28 µM, positive control) [%] | IC50 ([2]; positive control) [µM] | inhibition at 0.17 µM ([4]; neostigmine concentration 0.17 µM, positive control) [%] | IC50 ([4]; positive control) [nM] |
| --- | --- | --- | --- | --- | --- | --- | --- | --- | --- | --- | --- | --- | --- | --- | --- | --- | --- | --- | --- | --- |
| COc1cc(-c2[o+]c3cc(O)cc(OC4OC(CO)C(O)C(O)C4O)c3cc2OC2OC(CO)C(O)C(O)C2O)cc(OC)c1O (stereo not drawn) [Mv 3,5-diglc, malvidin 3,5-O-diglucoside] | 66.5 ± 1.93 | 0.83 | 13.4 ± 2.4 | 39.19 | 60.70 | 11.9 ± 4.5 | 90.4 ± 1.92 | – | – | – | – | – | – | – | – | – | – | – | – | – |
| COc1cc(-c2[o+]c3cc(O)cc(O)c3cc2OC2OC(CO)C(O)C(O)C2O)cc(OC)c1O (stereo not drawn) [Mv 3-glc, malvidin 3-O-glucoside] | 39.9 ± 3.02 | 0.53 | – | 3.49 | – | – | 74.78 ± 0.06 | 22.1 ± 3.0 ^a % | 22.1 ± 3 | 18.33 | 78.18 | 26.3 ± 3.1 ^a % | 26.3 ± 3.06 | – | – | – | – | – | – | – |
| COc1cc(-c2[o+]c3cc(O)cc(O)c3cc2O)cc(OC)c1O [Mv, malvidin] | 2.76 ± 0.16 | 0.22 | 10.2 ± 2.2 | 39.56 | – | 19.5 ± 2.3 | 12.4 ± 0.7 | – | – | – | – | – | – | 8.08 | 0.13 | 52.15 | – | – | – | – |
| CN(C)C(=O)Oc1cccc([N+](C)(C)C)c1 [Neostigmine, neostigmine bromide, reference compound] | – | – | – | – | – | – | – | – | – | – | – | – | – | – | – | – | 50 ± 4.2 | 20.3 ± 1.7 | 50 ± 1.2 | 170 ± 10 |
